Measured values published in PubChem BioAssay AID2060603 (Molecular Pharmacology Branch, DTP, NCI, 2025).

System: 422866-222-R5-J1-PDC spheroid viability
Experiment: Anticancer human tumor 422866-222-R5-J1-PDC patient-derived pancreatic adenocarcinoma cell line growth inhibition [CLK]
Details: spheroids with HUVEC and MSC; for IC50: curve of first compound; for viability, T/C: stronger effect = lower value
Text: A high-throughput screen of multi-cell type tumor spheroids was designed to identify active combinations of […] and targeted small molecules. Complex spheroids include a stromal component modeled by human endothelial cells (HUVEC) and fibroblasts modeled by human mesenchymal stem cells (MSCs). The concentration ranges selected for each drug and investigational agent were based upon clinically achievable concentrations if the clinical Cmax of the agent was known.
Compounds. The drugs and investigational agents: cirtuvivint (SM08502; NSC835563), CC-671 (NSC850746), vemurafenib (NSC761431), tapotoclax (NSC804041), sotorasib (NSC818433), adagrasib (NSC831453), MRTX-1133 (NSC836407), BAY2416964 (NSC825713), copanlisib (NSC816437), inavolisib (NSC800729), abemaciclib (NSC768073), osimertinib (NSC779217), entinostat (NSC756642), eltanexor (KPT-8602, NSC794443), venetoclax (NSC766270), ceralasertib (NSC777638), bortezomib (NSC756655), olaparib (NSC753686), talazoparib (NSC767125), alisertib (NSC759677), peposertib (NSC802822), gemcitabine (NSC613327), 5-fluorouracil (NSC19893), SN-38 (NSC673596), oxaliplatin (NSC266046), paclitaxel (NSC125973), and doxorubicin (NSC123127), were obtained from the National Cancer Institute (NCI) Developmental Therapeutics Program Chemical Repository. The FDA-approved anticancer drug set is available from the Developmental Therapeutics Program at https://dtp.cancer.gov/organization/dscb/obtaining/available plates.htm. […] The stock solutions were prepared in dimethyl sulfoxide (DMSO, Sigma-Aldrich, St. Louis, MO, cat. D2650), except for the platinum complexes which were prepared in saline (Quality Biological, Gaithersburg, MD, cat. 114-055-101), at 800-fold the tested concentration and stored at -70 degrees C prior to their use. All drugs and investigational agents were tested over a range starting from a high concentration at or near the clinical Cmax and decreasing in half-log increments. If the clinical Cmax for an agent had not been determined, the highest concentration tested was 10 microM.
Cell Culture. All cells were maintained in an incubator at 37 degrees C and 5% CO2 with 95% humidity. The PDC lines were cultured according to standard operating procedures established by the NCI PDMR. Briefly, all PDCs were thawed and cultured in Matrigel-coated flasks prepared with a working solution of 1X Ham's F-12 nutrient mix, without supplementation (Invitrogen, Waltham, MA, cat. 11765054), 100 U/mL penicillin-streptomycin (Invitrogen, cat. 15140122), and 2.5% Matrigel (Corning Inc., Corning, NY, cat. 354248) for the first three passages. The 947758-054-R-J2-PDC line was cultured in 6B/Colon 1A media, which includes advanced DMEM/F-12 (Thermo Fisher Scientific, cat. 12634028), 10 mM HEPES (Thermo Fisher Scientific, cat. 15630080), 1X GlutaMAX supplement (Thermo Fisher Scientific, cat. 35050061), 0.1 mg/mL primocin (InvivoGen, cat. ant-pm-2), 10% defined fetal bovine serum, heat inactivated (HyClone Laboratories Inc., cat. SH30070.03HI), 1.25 mM N-Acetyl-L-cysteine (Sigma-Aldrich, cat. A9165), 10 mM nicotinamide (Sigma-Aldrich, cat. N0636), 1X B-27 supplement (Thermo Fisher Scientific, cat. 17504044), 1X N-2 supplement (Thermo Fisher Scientific, cat. 17502048), and 10 microM Y-27632 dihydrochloride (Tocris Bioscience, cat. 1254). The 876862-298-R-J1-PDC was cultured in 6E media, which includes all 6B/Colon 1A media components plus 50% L-WRN conditioned media (ATCC, cat. CRL-3276), 50 ng/mL recombinant human EGF recombinant protein (hEGF; Thermo Fisher Scientific, cat. PHG0311), 10 ng/mL recombinant human fibroblast growth factor 10 (hGFG-10; PeproTech, cat. 100-26), 1 ng/mL recombinant human fibroblast growth factor 2 (hFGF-2; PeproTech, cat. 100-18B), and 1 µM prostaglandin E2 (PGE2; Tocris, cat. 2296). The 227483-062-R1-J1-PDC line was cultured in Panc media, containing all 6E components except hFGF-2, with the addition of 500 nM SB-431542 (Selleckchem, cat. S1067) and 10 nM gastrin (Tocris, cat. 3006). […]
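Further: spheroids exposed to agents for seven days before readout.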

CC(C)CC(NC(=O)C(Cc1ccccc1)NC(=O)c1cnccn1)B(O)O (configuration not stated) + CN1CCN(c2cc(C(=O)Nc3cc4cc(-c5cnn(C)c5)ccc4cn3)ccn2)CC1
IC50 (second compound 0.0316 µM): 4.7 nM | IC50 (second compound 0.1 µM): 5.27 nM | IC50 (second compound 0.316 µM): 4.39 nM | IC50 (second compound 1 µM): < 0.949 nM | IC50 (second compound 3.16 µM): < 0.949 nM | IC50 (second compound 10 µM): < 0.949 nM | viability, T/C (second compound 0.0316 µM, first compound 0.000949 µM): 111% | viability, T/C (second compound 0.0316 µM, first compound 0.003 µM): 76.2% | viability, T/C (second compound 0.0316 µM, first compound 0.00949 µM): 8.95% | viability, T/C (second compound 0.0316 µM, first compound 0.03 µM): 1.59% | viability, T/C (second compound 0.0316 µM, first compound 0.0949 µM): 0.94% | viability, T/C (second compound 0.0316 µM, first compound 0.3 µM): 0.87% | viability, T/C (second compound 0.1 µM, first compound 0.000949 µM): 115% | viability, T/C (second compound 0.1 µM, first compound 0.003 µM): 89.7% | viability, T/C (second compound 0.1 µM, first compound 0.00949 µM): 8.61% | viability, T/C (second compound 0.1 µM, first compound 0.03 µM): 1.61% | viability, T/C (second compound 0.1 µM, first compound 0.0949 µM): 0.69% | viability, T/C (second compound 0.1 µM, first compound 0.3 µM): 3% | viability, T/C (second compound 0.316 µM, first compound 0.000949 µM): 112% | viability, T/C (second compound 0.316 µM, first compound 0.003 µM): 72.7% | viability, T/C (second compound 0.316 µM, first compound 0.00949 µM): 4.02% | viability, T/C (second compound 0.316 µM, first compound 0.03 µM): 0.92% | viability, T/C (second compound 0.316 µM, first compound 0.0949 µM): 0.7% | viability, T/C (second compound 0.316 µM, first compound 0.3 µM): 0.68% | viability, T/C (second compound 1 µM, first compound 0.000949 µM): 25.4% | viability, T/C (second compound 1 µM, first compound 0.003 µM): 4.84% | viability, T/C (second compound 1 µM, first compound 0.00949 µM): 1.06% | viability, T/C (second compound 1 µM, first compound 0.03 µM): 0.61% | viability, T/C (second compound 1 µM, first compound 0.0949 µM): 0.91% | viability, T/C (second compound 1 µM, first compound 0.3 µM): 2.12% | viability, T/C (second compound 3.16 µM, first compound 0.000949 µM): 9.95% | viability, T/C (second compound 3.16 µM, first compound 0.003 µM): 4.26% | viability, T/C (second compound 3.16 µM, first compound 0.00949 µM): 1.32% | viability, T/C (second compound 3.16 µM, first compound 0.03 µM): 0.91% | viability, T/C (second compound 3.16 µM, first compound 0.0949 µM): 1.14% | viability, T/C (second compound 3.16 µM, first compound 0.3 µM): 1.2% | viability, T/C (second compound 10 µM, first compound 0.000949 µM): 1.77% | viability, T/C (second compound 10 µM, first compound 0.003 µM): 0.99% | viability, T/C (second compound 10 µM, first compound 0.00949 µM): 1.54% | viability, T/C (second compound 10 µM, first compound 0.03 µM): 0.44% | viability, T/C (second compound 10 µM, first compound 0.0949 µM): 1.53% | viability, T/C (second compound 10 µM, first compound 0.3 µM): 0.46%
